By EC50 is commonly meant the concentration giving half of the maximal effect. Lower therefore signals a more potent agent. A word on the IC50: it is the concentration that gives 50% inhibition.

Assay [1] has as its system TNFα release by human PBMCs. The assay is described as follows: Cytokine release by LPS stimulated human PBMCs (TNFα ELISA). In kind it is cell-based. As to conditions: PBMC, 24 h, Table 5, LPS 1 μg/mL. Here is the method:
For the assay PBMCs are seeded at 2.5E6 cells/mL in 160 μL in 96-well plates (Nunc). Serial dilution of the test compounds are made first in DMSO (Sigma) and then diluted 50-fold in M199 medium (Gibco) containing 1% heat-inactivated FBS. Compounds are further 1/10 diluted in the assay plates to obtain final DMSO concentration of 0.2%. Cells are preincubated with the compounds for 1 hr at 37° C., 5% CO2. Then, cells are stimulated with LPS (Escherichia coli serotype 026:B6, Cat. No. L2654, Sigma) that is added in a volume of 20 μL to a final concentration of 1 μg/mL and cells are further cultured for 24 hr. The plates are centrifuged and the supernatant is collected and stored at −80° C. until analysis of appropriate dilutions in ELISAs.
After 4 hr incubation at RT, blocking buffer is removed and plates are washed once with PBST (1×PBS with 0.05% Tween-20 (Sigma)). Then, 40 μL of sample is transferred to the ELISA plates and plates are incubated at 4° C. […] After 2 h of incubation at RT, plates are washed as described above and 35 μL/well of a 1/2000 dilution of streptavidin-HRP conjugate (Cat. No. SNN2004, Biosource) in buffer D is added. After 45 min, plates are washed as described above and incubated for 5 min with 50 μL/well BM Chemiluminescence ELISA Substrate POD (Roche). Readout is performed on the Luminoscan Ascent Luminometer (Labsystems) with an integration time of 100 msec delivering raw data (RLU: relative luminescence units). The following controls are included in the experiments, a maximal signal control, in which the cells are activated by LPS but only the 0.2% DMSO vehicle (and thus no compound) is added. […] A minimal signal control is also included in these experiments. Here, cells are not triggered. […] Where compounds are tested at 8 concentrations (1/3 serial dilution), EC50-values can be calculated by curve fitting of the means of the PIN data achieved for a compound at each test concentration.

A further assay has as its target T1, MAPKAPK5 (Homo sapiens, UniProt Q8IW41).
T1 sequence (Q8IW41 1-471 isoform Q8IW41-2): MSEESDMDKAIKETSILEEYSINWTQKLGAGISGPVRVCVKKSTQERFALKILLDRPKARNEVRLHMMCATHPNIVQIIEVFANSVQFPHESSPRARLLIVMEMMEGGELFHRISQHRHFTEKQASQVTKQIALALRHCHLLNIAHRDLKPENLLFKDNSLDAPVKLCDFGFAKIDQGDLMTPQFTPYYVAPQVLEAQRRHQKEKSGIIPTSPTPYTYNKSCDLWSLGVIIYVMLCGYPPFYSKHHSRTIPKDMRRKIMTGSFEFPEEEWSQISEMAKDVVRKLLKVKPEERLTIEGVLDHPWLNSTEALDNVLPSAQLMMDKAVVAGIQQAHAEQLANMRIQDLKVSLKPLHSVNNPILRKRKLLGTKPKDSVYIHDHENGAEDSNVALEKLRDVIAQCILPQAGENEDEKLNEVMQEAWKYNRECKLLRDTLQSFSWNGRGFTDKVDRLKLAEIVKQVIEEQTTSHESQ
The assay is described as follows: MAPKAP-K5 assay (FlashPlate kinase assay).

The subject of assay [2] is MMP1 expression by activated primary synovial fibroblasts. Description: 'MMP assay': MMP1 expression by complex trigger activated synovial fibroblasts (MMP1 ELISA). In kind it is cell-based. Conditions: Homo sapiens, Fibroblast; Table 3; RASFs, complex trigger, 48 hrs, MMP1 ELISA. (In general: In an ELISA, binding on a coated surface is turned into a signal by an enzyme label.)

Procedure for MAPKAPK5: MAPKAP-K5 reactions are performed in FlashPlate format using 0.1 or 0.2 μCi 33P-ATP; 0.6 μM ATP; 1 mU MAPKAP-K5; 3 μM MAPKAP-K5 peptide substrate, incubated at room temperature for 30 minutes.
The MAPKAP-K5 kinase reaction is performed in a 384 well polypropylene plate (Matrix Technologies) and then transferred to a streptavidin-coated 384 well flashplate (Perkin-Elmer).
To wells containing 2 μL test compound or standard inhibitor, 13 μL Enzyme mix or diluent are added using a Hydra (Robbins Scientific).
Reactions are started by addition of 10 μL of [2,5×] substrate cocktail using a Multidrop (Thermo-Labsystems), to give final concentrations in the assay of:
Plates are incubated at room temperature for 30 minutes.
Reactions are terminated by the addition of 25 μL EDTA (50 mM) to each well using a Micro-fill (Biotek).
Reactions are transferred to a streptavidin-coated flashplate using a Zymark robotic system. Plates are incubated for 60 minutes at room temperature.
All wells are washed 3 times with 100 μl phosphate buffered saline using a Tecan plate washer.
Radioactivity is determined by scintillation counting of the flashplate (empty wells) on a Packard TopCount.
Enzyme Mix: • Enzyme • 50 mM Tris Hcl (pH 7.5) • 0.1 mM EGTA • 2 mM DTT • 1 mg/mL BSA
Reaction Buffer: • 50 mM Tris Hcl (pH 7.5) • 0.1 mM EGTA • 10 mM Magnesium acetate • 2 mM DTT

For the compound `O=C1NCc2cc(-c3cnc(Nc4ccc(F)cc4)c4ncnn34)ccc21` [Compound 117], the values for the half-maximal effective concentration (EC50) in assay [1] and in assay [2] were above 1 µM and 0.101 to 0.5 µM, respectively. Also, the IC50 against MAPKAPK5 was above 1 µM.

In the case of `CN1CCN(c2ccc(Nc3ncc(-c4ccc(C(N)=O)c(F)c4)n4ncnc34)cc2)CC1` [Compound 7], the EC50 in assay [1] and in assay [2] was above 1 µM in each case. For the same compound, the IC50 on MAPKAPK5 is above 1 µM.

Regarding `NC(=O)c1cc(-c2cnc(Nc3ccc(N4CCN(CC5CC5)CC4)cc3)c3ncnn23)cs1` [Compound 58, 4-{8-[4-(4-(Cyclopropylmethyl)piperazin-1-yl)-phenylamino]-[1,2,4]triazolo[1,5-a]pyrazin-5-yl}thiophene-2-carboxylic acid amide], the EC50 in assay [1] is above 1 µM; in assay [2], 0.101 to 0.5 µM. In addition, on MAPKAPK5, the 50% inhibitory concentration (IC50) was 0.101 to 0.5 µM.

As for `NC(=O)c1nc(-c2cnc(Nc3ccc(N4CCOCC4)cc3)c3ncnn23)cs1` [Compound 61, 4-[8-(4-Morpholin-4-ylphenylamino)-[1,2,4]triazolo[1,5-a]pyrazin-5-yl]thiazole-2-carboxylic acid amide], the concentration for a half-maximal effect (EC50) in assay [1] is above 1 µM; in assay [2], 0.501 to 1 µM. The same compound registered an IC50 at MAPKAPK5 above 1 µM.

Consider `NC(=O)c1ccc(-c2cnc(Nc3ccc(OCCN4CCOCC4)cc3)c3ncnn23)s1` [Compound 22, 5-(8-(4-(2-Morpholinoethoxy)phenylamino)-[1,2,4]triazolo[1,5-a]pyrazin-5-yl)thiophene-2-carboxamide], for which the EC50 in assay [1] and in assay [2] was above 1 µM in each case. The concentration for half-maximal inhibition (IC50) at MAPKAPK5 fell in the range of 0.501 to 1 µM.

For the compound `CC(C)N1CCN(c2ccc(Nc3ncc(-c4coc(C(N)=O)c4)n4ncnc34)cn2)CC1` [Compound 86, 4-(8-(6-(4-Isopropylpiperazin-1-yl)pyridin-3-ylamino)-[1,2,4]triazolo[1,5-a]pyrazin-5-yl)furan-2-carboxamide], the half-maximal effective concentration (EC50) in assay [1] and in assay [2] was above 1 µM each time. Besides, on MAPKAPK5, the IC50 fell in the range of 0.001 to 0.1 µM.

For `Nc1ncc(-c2cnc(Nc3ccc(N4CCOCC4)cc3)c3ncnn23)cn1` [Compound 78], the EC50 in assay [1] was 0.501 to 1 µM; in assay [2], above 1 µM. At MAPKAPK5, this compound registered a half-maximal inhibitory concentration (IC50) above 1 µM.

As to `O=C1CCC(c2ccc(-c3cnc(Nc4ccc(N5CCOCC5)cc4)c4ncnn34)cc2)=NN1` [Compound 71], the EC50 in assay [1] and in assay [2] was above 1 µM throughout. The same compound gave an IC50 on MAPKAPK5 above 1 µM.

Take `Clc1cc(Nc2ncc(-c3cn[nH]c3)n3ncnc23)ccc1N1CCOCC1` [Compound 18]: the values for the EC50 in assay [1] and in assay [2] were above 1 µM and 0.501 to 1 µM, respectively. In addition, the IC50 against MAPKAPK5 was above 1 µM.

In the case of `CC(C)N1CCC(c2ccc(Nc3ncc(-c4cn[nH]c4)n4ncnc34)cn2)CC1` [Compound 172], the EC50 in assay [1] and in assay [2] was above 1 µM each time. At MAPKAPK5, this compound returned an IC50 above 1 µM.

Turning to `C[C@@H]1CN(c2ccc(Nc3ncc(-c4cn[nH]c4)n4ncnc34)cc2)[C@@H](C)CN1C` [Compound 31], the EC50 in assay [1] and in assay [2] was above 1 µM in each case. The compound also gave an IC50 against MAPKAPK5 of 0.101 to 0.5 µM.

On to `c1nc2c(Nc3ccc(N4CCOCC4)cc3)ncc(-c3ccsc3)n2n1` [Compound 50, (4-Morpholin-4-ylphenyl)-(5-thiophen-3-yl-[1,2,4]triazolo[1,5-a]pyrazin-8-yl)amine], for which the 50% effective concentration (EC50) in assay [1] is above 1 µM; in assay [2], 0.101 to 0.5 µM. The compound further came in with an IC50 at MAPKAPK5 above 1 µM.

As to `NC(=O)c1cc(-c2cnc(Nc3ccc(N4CCN(CC5CC5)CC4)nc3)c3ncnn23)cs1` [Compound 54, 4-{8-[6-(4-[Cyclopropylmethyl]piperazin-1-yl)-pyridin-3-ylamino]-[1,2,4]triazolo[1,5-a]pyrazin-5-yl}thiophene-2-carboxylic acid amide], the half-maximal effective concentration (EC50) was 0.501 to 1 µM in assay [1] and 0.101 to 0.5 µM in assay [2]. In addition, the concentration for half-maximal inhibition (IC50) at MAPKAPK5 was in the range of 0.101 to 0.5 µM.

Source of the values: patent US20100298300A1, “TRIAZOLOPYRAZINE COMPOUNDS USEFUL FOR THE TREATMENT OF DEGENERATIVE & INFLAMMATORY DISEASES” (priority 2006, published 2010).
